The target in one data set is T1, TrkA (human full length) (Homo sapiens, UniProt P04629).
T1 construct: expressed recombinantly on the intracellular C-terminus of TrkA (human full length); host or cells: U2OS
The experiment in a line: PathHunter whole cell functional assay, NGF stimulated TrkA activation (U2OS). To be noted: U2OS PathHunter cells, mean of triplicate; read-out: cellular IC50, NGF stimulated TrkA activation. Type of data set: cell-based. The text has this: Compound inhibition in a live, whole cell based functional assay: There are several methods to measure whole length TrkA activation stimulated by its natural ligand or agonist NGF in live cells. For example, the PathHunter Profiling services offered by DiscoveRx (Fremont, Calif.). The PathHunter technology is an adaptation of enzyme fragment complementation that provides a novel, generic functional cell-based assay format for detecting protein-protein interaction. In this cell-based assay approach, with U2OS cell background, a small peptide epitope (PK) is expressed recombinantly on the intracellular C-terminus of TrkA (human full length). This is co-expressed with a larger sequence, termed enzyme acceptor (EA) that is attached to a cytoplasmic protein SHC1 which will interact with TrkA intracellularly. NGF induced activation of TrkA receptor causes either homo- or hetero-dimerization of TrkA resulting in cross-phosphorylation. The SHC1-EA fusion protein then binds the phosphorylated TrkA receptor forcing complementation of the PK and EA fragment. This interaction generates an active beta-galactosidase enzyme, which is detected using a chemiluminescent substrate.

For data set [1], the system named is CFA-induced inflammatory pain. The experiment in a line: Rat CFA-induced inflammatory pain model. The note with it: 50 μL of 1 mM s.c. into the paw 3 hours after CFA. The class given is in vivo. Here is the method: Rat CFA-induced Inflammatory Pain Model. Hyperalgesia was induced by subcutaneously injecting 50 μL of CFA (Sigma-Aldrich, St. Louis, Mo., USA) into the plantar surface of the left hind paw of the rats using a 30-gauge hypodermic needle under sevoflurane anesthesia. The classical signs of inflammation, including edema and redness, for up the last day of tests were recorded. To assess the effect of test article on CFA-induced inflammatory pain, the rats were anesthetized with sevoflurane 3 hours after CFA injection and then injected 50 μL of either 1 mM test article (n=6) or Saline (n=4) subcutaneously (S.C.) into the same site as the CFA injection, using a 30-gauge hypodermic needle under sevoflurane anesthesia, according to published method (Ueda K., et al, J Pharmacol. Sci., 2010; 112(4):438-43). Paw withdrawal latencies (thermal hyperalgesia) are measured before and at […] 2, 4, and 7 days after CFA injection. Mechanical thresholds were also measured in the same way with either Formula 1 compound (n=6) or Saline (n=4) at similar different time points (for example, 1, 3 hour and 3 days). The noxious heat and mechanical thresholds were separately measured in each group of rats. The threshold was measured 3-5 times in each rat and then averaged.

In data set [2] the test system is CCI neuropathic pain (mechanical allodynia). The data set is described as follows: Chronic constriction injury (CCI) model of neuropathic pain in rat. The class given is in vivo. To be noted: for observed side effects in dosed CCI-rats: single oral dose. The text has this:
Chronic Constriction Injury (CCI) Model of Neuropathic Pain in Rat. The CCI model is one of the most commonly used mono-neuropathic pain model firstly described in details by Bennett and Xie (Bennett CJ, Xie YK. Pain. 1988;33(1):87-107). It mimics important clinical chronic pain symptoms such as mechanical allodynia and thermal hyperalgesia, Chronic constriction injury of the sciatic nerve was produced by tying four loose ligatures around the left sciatic nerve according to the method of Bennett and. Xie. […] Calibrated von Frey filaments were used to determine the lowest mechanical (tactile) threshold required to evoke a brisk paw withdrawal reflex in the rat hindpaws. Rats were allowed to acclimatize in wire mesh cages for 15-20 min prior to von Frey testing. Assessment of paw withdrawal thresholds (PWTs) using von Frey filaments was undertaken prior to CCI-surgery (pre-surgery baseline on day 0). Before the drug dosing on day 14, the pre-dose baseline was recorded for each rat. […] Drug-naïve CCI-rats (n=4 - 6 per group) were used. The oral (PO) gavage vehicle was either 10% (w/v) Povidone K25 in water for PO dosing, or 18% (w/v) CrosPovidone in water for PO dosing, or 0.5% CMC-Na/0.1% Tween 80in distilled water for PO dosing. The positive control gabapentin was dissolved in the vehicle and orally given at 100 mg/kg (by oral gavage). Test article was dissolved or suspended in the vehicle and orally given at 25, 50, 100 and 150 mg/kg. Each CCI-rat was administered a single oral dose of test article, gabapentin or vehicle control, 2 hours before assessment of PWT.

A short description of data set [3]: Accelerated stability test (XRPD and Raman). Type of data set: physicochemical. To be noted: 1 week. Here is the method: X-ray Powder Diffraction (XRPD). Approximately 2 mg of sample was gently compressed on the XRPD zero back ground single obliquely cut silica sample holder. The sample was then loaded into a D/MAX 2200 X-ray powder diffractometer (Rigaku) or a Philips X-Pert MPD diffractometer and analyzed using the following experimental conditions (Tube anode: Cu; Generator tension: 40 kV; Tube current: 40 mA; Wavelength alphal: 1.54056 Å; Wavelength alpha2: 1.5444 Å; Start angle [2 theta]: 5; End angle [2 theta]: 50; and Continuous scan). For suspected novel forms a slightly slower scan speed was used over a range of 4-40°2θ.
Raman spectroscopy. Samples were analyzed by a Nicolet Almega XR Dispersive Raman Microscope for its Raman spectrum using the following conditions (Exposure Time: 1.0 s; Acquisition No: 10; Pinhole Size: 25, 50 or 100 μm; Wavelength range: 2000˜300 cm^−1 (single grating); Laser: He-Ne 780 nm 100% power; Objective: 20×/0.40 or 50×/0.75 (magnifier/numerical aperture number)). Then the measured Raman spectra were corrected by baseline subtraction using the software OMNIC™v7.3.

Data set [4] has as its system SNL neuropathic pain (mechanical allodynia). The experiment in a line: Spinal nerve ligation (SNL) mono-neuropathic pain model in rat. Type of data set: in vivo. The note with it: SNL rats, oral administration. Here is the method:
Spinal Nerve Ligation (SNL) Mono-Neuropathic Pain Model in Rat. The surgical procedure will be performed according to the method firstly described by Kim and Chung (Kim SH, Chung JM. Pain. 1992;50(3):355-63.). This procedure will result in tactile allodynia in the left hindpaw. […] The dose-reverse anti-allodynia effects of test compound: on day 14 after surgery, rats were treated with test article at one of four doses, vehicle or positive control by oral gavage, and PWT was determined by calibrated von Frey filaments at time points of 0 (right before the drug dosing, Pre-Dose Baseline), 0.5, 1, 2, 4 and 6 hr. The anti-allodynia effects of repeated administration of test article: Administration of test article was started on day 7 after surgery, once a day for 7 days. PWT was determined by calibrated von Frey filaments, 2 hour after test article dosing each day. After 7 days dosing, the measurement were continued, every other day without compound dosing for another 7 days. PWT was determined at the time points as given above.

Data set [5] is described as follows: Rat pharmacokinetics (IV and PO, plasma). Type of data set: in vivo. To be noted: male, CD IGS, PO 100 mg/kg, mean. Here is the method: Rat Pharmacokinetics. Compound I was dosed to nonfasted male CD IGS rats (weighting 180-250 g, Charles River Laboratories) by single intravenous (IV, n=3/group) or oral gavage (PO, n=4/group, including control rat group for drug-free blood and brain collection) administration at a nominal dose levels of 3 mg/kg (IV) or 5 mg/kg (IV) and 10, 50, 100 mg/kg (PO) respectively. Compound was formulated in either DMSO/Solutol® HS 15/phosphate buffered saline, pH 7.4 (PBS) for both IV and PO dosing, or 10% (w/v) Povidone K12 in water for IV dosing or 10% (w/v) Povidone K25 in water for PO dosing, or 18% (w/v) CrosPovidone in water for PO dosing. An intravenous profile was obtained by taking serial or terminal blood samples at 3, 10, 30, 60, 120, 240, 360, 1440 min post dose. An oral profile was obtained by taking serial or terminal blood samples at 10, 30, 60, 120, 240, 360, 480, 1440 min post dose.
Plasma Sample Collection from Rats. Animals were sedated under general inhalant anesthesia (3% isoflurane) for blood collection by cardiac puncture. […]
Plasma and brain samples were subjected to quantitative analysis by LC-MS/MS using compound-specific mass transitions. […] The concentrations of the test compound in brain (ng/g brain tissue) and in plasma (ng/mL) as well as the ratio of the brain concentration and the plasma concentration at each time point were determined and reported.

Molecules are shown by their SMILES. pIC50: −log10 of the molar value.

The record followed here is patent US9718794B2, “Crystalline forms of tyrosine kinase inhibitors and their salts” (Purdue Pharma L.P., priority 2013, dated 2017).

T1 sequence (P04629 33-796): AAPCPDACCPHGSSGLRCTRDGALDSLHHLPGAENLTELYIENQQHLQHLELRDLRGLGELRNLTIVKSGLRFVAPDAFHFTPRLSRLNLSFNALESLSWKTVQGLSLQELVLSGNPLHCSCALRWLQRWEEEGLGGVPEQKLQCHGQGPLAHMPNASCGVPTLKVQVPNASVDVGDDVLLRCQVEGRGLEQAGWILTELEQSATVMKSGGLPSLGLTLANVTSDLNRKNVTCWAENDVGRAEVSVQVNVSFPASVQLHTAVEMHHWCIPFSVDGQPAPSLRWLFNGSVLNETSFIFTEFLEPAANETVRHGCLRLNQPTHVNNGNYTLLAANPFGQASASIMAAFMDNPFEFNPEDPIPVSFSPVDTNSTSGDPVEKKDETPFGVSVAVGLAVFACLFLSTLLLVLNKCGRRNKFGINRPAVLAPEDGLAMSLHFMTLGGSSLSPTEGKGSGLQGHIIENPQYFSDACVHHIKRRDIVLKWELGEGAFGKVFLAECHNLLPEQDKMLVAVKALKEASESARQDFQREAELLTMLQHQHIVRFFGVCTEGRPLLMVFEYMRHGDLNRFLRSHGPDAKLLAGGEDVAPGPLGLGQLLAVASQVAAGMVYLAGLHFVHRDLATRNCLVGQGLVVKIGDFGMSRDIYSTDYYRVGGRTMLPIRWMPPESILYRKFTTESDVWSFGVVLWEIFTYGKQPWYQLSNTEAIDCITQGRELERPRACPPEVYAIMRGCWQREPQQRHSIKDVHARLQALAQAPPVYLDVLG

For `O=C(O)c1ccc(Nc2cc(N3CCN(C4CCCCC4)CC3)c3noc4c3c2C(=O)c2ccccc2-4)cc1` [Compound C], the pIC50 (as a rule, −log10 of the IC50, conventionally taken in molar units) at TrkA (human full length) was approximately 7.30.
Consider `O=C([O-])c1ccc(Nc2cc(N3CCN(C4CCCCC4)CC3)c3noc4c3c2C(=O)c2ccccc2-4)cc1.[Na+]` [Compound I, Sodium 4-((3-(4-cyclohexylpiperazin-1-yl)-6-oxo-6H-anthra[1,9-cd]isoxazol-5-yl)amino)benzoate], for which, in data set [1], the “analgesic effect (FIG. 1)” value is on record as “efficacious in relieving the pain”. In addition, the “effect on mechanical allodynia (FIG. 2)” value in data set [2] (CCI rats, single oral dose 25, 50, 100 and 150 mg/kg, PWT 2 hours after dosing) is “significantly reduced mechanical allodynia”. Besides, the “observed side effects in dosed CCI-rats” value in data set [2] is on record as “no such effect or other abnormality was observed”. Also, the “stability by XRPD and Raman” value in data set [3] (40° C./75% RH) and in data set [3] (80° C.) was “no instability” in each case. Also, the “effect on mechanical allodynia” value in data set [4] is recorded as “significantly reduced mechanical allodynia”. The bioavailability (in general, dose-corrected exposure relative to a reference, in per cent) in data set [5] is approximately 100%.
Turning to `NCC1(CC(=O)O)CCCCC1` [gabapentin, reference compound], the “observed side effects in dosed CCI-rats” value in data set [2] is listed as “drowsiness or motor incoordination”.
